Paper PMC9257626 (RSC Chemical Biology, 2022)
Structures can show the parent of a compound that is named as a salt.

Target: GAPDH (endogenous, HeLa / Jurkat) (Homo sapiens, UniProt P04406)
Type: biochemical

GAPDH (endogenous, HeLa / Jurkat), sequence (P04406 2-335 limits assumed): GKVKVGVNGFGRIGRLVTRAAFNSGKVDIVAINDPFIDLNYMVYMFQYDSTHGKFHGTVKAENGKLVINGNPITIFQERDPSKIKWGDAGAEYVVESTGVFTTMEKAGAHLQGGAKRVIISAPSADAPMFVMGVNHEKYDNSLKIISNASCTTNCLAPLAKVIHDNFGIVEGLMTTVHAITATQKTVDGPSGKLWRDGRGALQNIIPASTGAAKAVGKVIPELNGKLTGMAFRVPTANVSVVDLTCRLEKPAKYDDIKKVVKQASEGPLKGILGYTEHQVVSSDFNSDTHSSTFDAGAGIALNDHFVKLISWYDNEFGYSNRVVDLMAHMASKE

COC(=O)/C=C/C(=O)OC [DMF, dimethyl fumarate]
loss of SEC1 labeling at 5 μM: 3-BP, IA and DMF showed complete loss of SEC1 labeling even at the lower concentration

O=C(O)C(=O)CBr [3-BP, 3-bromopyruvate]
loss of SEC1 labeling at 5 μM: 3-BP, IA and DMF showed complete loss of SEC1 labeling even at the lower concentration
